Earlier results in US7205292B2, “CGRP receptor antagonists” (Merck & Co., Inc., priority 2003, dated 2007).

Columns and labels:
CGRP [1] = conditions: rats, electrical stimulation of the dura mater, prior administration
CGRP [2] = conditions: rat, trigeminal ganglion stimulation
CGRP [3] = conditions: marmoset, electrical stimulation of the trigeminal ganglion

Molecule	effect on increased diameter of the middle meningeal artery (CGRP [1])	effect on increased facial blood flow (CGRP [2])	effect on increase in facial blood flow (CGRP [3])
CGRP(8-37)	blocked	inhibited	–
NCCCC[C@H](NC(=O)[C@@H](Cc1cc(Br)c(O)c(Br)c1)NC(=O)N1CCC(N2Cc3ccccc3NC2=O)CC1)C(=O)N1CCN(c2ccncc2)CC1 [BIBN4096BS]	–	–	blocked
